Where two headings read alike, the source gives them in different places.
Biological target: human 11b-hsd-1 (Homo sapiens, UniProt P28845)
Assay: Inhibition constant Ki of human 11b-hsd-1 (3H-cortisone to 3H-cortisol conversion, HPLC)
Format: biochemical
Conditions: for Ki: apparent Ki, read-out: Ki app

human 11b-hsd-1, sequence (P28845 whole entry): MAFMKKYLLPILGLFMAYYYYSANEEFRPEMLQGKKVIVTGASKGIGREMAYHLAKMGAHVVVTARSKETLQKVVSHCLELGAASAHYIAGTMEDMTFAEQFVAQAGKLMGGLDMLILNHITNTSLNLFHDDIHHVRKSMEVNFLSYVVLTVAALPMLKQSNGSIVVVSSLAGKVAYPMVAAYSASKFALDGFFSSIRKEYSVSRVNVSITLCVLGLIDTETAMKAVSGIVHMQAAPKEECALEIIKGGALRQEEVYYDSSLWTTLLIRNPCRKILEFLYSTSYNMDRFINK

Row | SMILES | inhibition at 0.1 µM (0.1 μM compound) | Ki | Ki (human 11b-hsd-1) | inhibition at 0.1 µM (compound at 0.1 μM)
1 | Cc1ccccc1CNC(=O)[C@H]1CCCN1Cc1ccc(Cl)cc1 [Example 268] | 100% | 10 nM | – | –
2 | N#Cc1ccc(CN2CCC[C@@H]2C(=O)NCC2CCCCC2)cc1 [Example 328] | 100% | 3.2 nM | – | –
3 | CC(C)CN1CCOC[C@@H]1C(=O)NC1Cc2ccccc2C1 [Example 307] | 100% | 12.8 nM | – | –
4 | O=C(NC1C2CC3CC(C2)CC1C3)[C@H]1CNC[C@H](c2ccccc2)C1 (some centres unmarked) [Example 346] | 90.2% | 18 nM | – | –
5 | O=C(NC12CC3CC(CC(C3)C1)C2)[C@H]1CCCN1Cc1ccc(Cl)cc1 [Example 10] | – | – | 0.85 nM | 100%
6 | O=C(NC1C2CC3CC(C2)CC1C3)[C@H]1CCCN1CC1CCNCC1 (some centres unmarked) [Example 144] | – | – | – | 87%
7 | CCCN1CCC[C@@H]1C(=O)NCc1ccccc1 [Example 217] | 84.6% | 171 nM | – | –
8 | O=C(NC1CCCCC1)[C@H]1CCCN1CC1CC1 [Example 102] | – | – | 7 nM | 91%
9 | N#Cc1ccc(CN2CCOC[C@@H]2C(=O)NCC2CCCCC2)cc1 [Example 334] | 100% | 2.4 nM | – | –
10 | CN1CCC(CN2CCOC[C@@H]2C(=O)NC2C3CC4CC(C3)CC2C4)CC1 (some centres unmarked) [Example 61] | – | – | – | 74%
11 | O=C(NC1CCCCC1)[C@@H]1C[C@H](Oc2ccc(Cl)cc2)CN1 [Example 370] | 88.7% | 10 nM | – | –
12 | CCCN1CCC[C@@H]1C(=O)NC1Cc2ccccc2C1 [Example 38] | – | – | 7.9 nM | 90.4%
13 | CCCN1CCC[C@@H]1C(=O)NC1CCC(F)(F)CC1 [Example 137] | – | – | – | 87%
14 | CCCN1CCC[C@@H]1C(=O)NC12CC3CC(CC(C3)C1)C2 [Example 21] | – | – | 1.2 nM | 100%
15 | CC(C)CN1CCC[C@@H]1C(=O)N[C@@H]1CCc2ccccc21 [Example 291] | 100% | 1 nM | – | –
16 | CC(C)CN1CCOC[C@@H]1C(=O)N[C@H](C)c1ccc(Cl)cc1 [Example 317] | 91.1% | 8.72 nM | – | –
17 | CCN1CCC(CN2CCOC[C@@H]2C(=O)NC2C3CC4CC(C3)CC2C4)CC1 (some centres unmarked) [Example 75] | – | – | – | 91%
18 | CC(C)CN1CCC[C@@H]1C(=O)NC12C3C4C1C1C2C3C41C (some centres unmarked) [Example 122] | – | – | – | 100%
19 | O=C(NCc1ccc(F)cc1F)[C@H]1CCCN1CCC(F)(F)F [Example 242] | 78.9% | 44 nM | – | –
20 | Cc1cc(C)cc(O[C@@H]2CN[C@H](C(=O)NC3C4CC5CC(C4)CC3C5)C2)c1 (some centres unmarked) [Example 347] | 96.6% | 3.3 nM | – | –
21 | CCC1CCCCN1C(=O)[C@H]1CSCN1Cc1ccc(Cl)cc1 (some centres unmarked) [Example 198] | 100% | 2.5 nM | – | –
22 | N#Cc1ccc(CN2CCC[C@@H]2C(=O)N[C@@H]2CCCc3ccccc32)cc1 [Example 297] | 100% | 3.7 nM | – | –
23 | CC(C)CN1CCOC[C@@H]1C(=O)N(C)Cc1ccc(F)cc1 [Example 37] | – | – | 39.3 nM | 100%
24 | CCCN1CCC[C@@H]1C(=O)NCC1CCCC1 [Example 94] | – | – | 11 nM | 86%
25 | O=C(NC1C2CC3CC(C2)CC1C3)[C@@H]1C[C@H](Oc2cc(F)ccc2F)CN1 (some centres unmarked) [Example 352] | 100% | 1 nM | – | –
26 | O=C(NC1CCCCC1)[C@@H]1C[C@H](Oc2cc(F)ccc2F)CN1 [Example 371] | 86.2% | – | – | –
27 | CC(C)CN1CCC[C@@H]1C(=O)NCc1ccc(F)cc1F [Example 238] | 88.4% | 16.3 nM | – | –

Row | SMILES | inhibition at 0.1 µM (0.1 μM compound) | Ki | Ki (human 11b-hsd-1) | inhibition at 0.1 µM (compound at 0.1 μM)
28 | O=C(NC12CC3CC(CC(C3)C1)C2)[C@H]1CCCN1CC(F)(F)F [Example 22] | – | – | 0.85 nM | 100%
29 | O=C(NCc1c(F)cccc1F)[C@H]1CCCN1CC1CCCC1 [Example 241] | 81.4% | 32 nM | – | –
30 | O=C(NC1C2CC3CC(C2)CC1C3)[C@H]1COCCN1CCO (some centres unmarked) [Example 66] | – | – | 10 nM | 89%
31 | O=C(NC1C2CC3CC(C2)CC1C3)[C@H]1CCCN1Cc1ccccn1 (some centres unmarked) [Example 41] | – | – | < 1 nM | 100%
32 | O=C(N[C@H]1c2ccccc2C[C@H]1O)[C@H]1COCCN1CC1CCCC1 [Example 310] | 92% | 29.5 nM | – | –
33 | CC(C)[C@H]1CCN[C@@H]1C(=O)NC1C2CC3CC(C2)CC1C3 (some centres unmarked) [Example 344] | 90.7% | 11 nM | – | –
34 | COc1ccccc1CNC(=O)[C@H]1CCCN1CCc1ccccc1 [Example 269] | 77.8% | 66 nM | – | –
35 | O=C(N[C@H]1c2ccccc2C[C@H]1O)[C@H]1COCCN1Cc1ccccc1 [Example 301] | 89.2% | 11.1 nM | – | –
36 | C[C@H](N)CN1CCC[C@@H]1C(=O)NC1C2CC3CC(C2)CC1C3 (some centres unmarked) [Example 176] | – | – | – | 100%
37 | CC(C)CN1CCOC[C@@H]1C(=O)NCc1ccc(F)cc1F [Example 281] | 84.9% | 48 nM | – | –
38 | O=C(NCc1ccc(Cl)cc1)[C@H]1CCCN1Cc1ccccc1 [Example 213] | 78% | 120 nM | – | –
39 | CN(C(=O)C1COCCN1CC1CCCCC1)C1CCCCC1 (centres unmarked) [Example 180] | – | – | 32 nM | 72.1%
40 | COc1cccc(CNC(=O)[C@H]2CCCN2CC2CCCC2)c1 [Example 262] | 76% | 60 nM | – | –
41 | CC(C)(C)OC(=O)N1CCN(CC2CCCC2)[C@@H](C(=O)NC23CC4CC(CC(C4)C2)C3)C1 [Example 161] | – | – | – | 8.7%
42 | CC(C)CN1CCC(CN2CCOC[C@@H]2C(=O)NC2C3CC4CC(C3)CC2C4)CC1 (some centres unmarked) [Example 74] | – | – | – | 90%
43 | CC(C)CN1CCC[C@@H]1C(=O)N[C@@H]1CCCc2ccccc21 [Example 51] | – | – | 1 nM | 100%
44 | CC(C)CN1CCOC[C@@H]1C(=O)N(C)C1CCCCC1 [Example 333] | 100% | 4 nM | – | –
45 | CN1CCC(CN2C[C@H](O)C[C@@H]2C(=O)NC2CCCCC2)CC1 [Example 42, (4R)-N-cyclohexyl-4-hydroxy-1-[(1-methylpiperidin-4-yl)methyl]-D prolinamide] | – | – | – | 0%
46 | O=C(NCc1ccc(F)cc1F)[C@H]1CCCN1Cc1ccccc1 [Example 236] | 76.8% | 66 nM | – | –
47 | O=C(NCc1ccccc1)[C@@H]1CCCN1CC1CCCCC1 [Example 5, N-benzyl-1-(cyclohexylmethyl)-L-prolinamide] | – | – | – | 29%
48 | CCCN1CCC[C@@H]1C(=O)N[C@@H]1CCc2ccccc21 [Example 286] | 91.4% | 5.8 nM | – | –
49 | N#Cc1ccc(CN2CCC[C@@H]2C(=O)NC23CC4CC(CC(C4)C2)C3)cc1 [Example 254] | 100% | 1 nM | – | –
50 | O=C(NC1CCCCC1)[C@H]1CCCN1CC1CCCC1 [Example 50] | – | – | 1.3 nM | 100%
51 | O=C(N[C@@H]1CCCc2ccccc21)[C@H]1COCCN1Cc1ccccc1 [Example 313] | 97% | 4.89 nM | – | –
52 | Cc1cccc(O[C@@H]2CN[C@H](C(=O)NC3C4CC5CC(C4)CC3C5)C2)c1 (some centres unmarked) [Example 348] | 100% | 2.7 nM | – | –
53 | CCCN1CCOC[C@@H]1C(=O)NC1C2CC3CC(C2)CC1C3 (some centres unmarked) [Example 65] | – | – | 2.6 nM | 100%
